Results published in patent publication US20200071361A1, “ENGINEERED ANTIMICROBIAL AMPHIPHILIC PEPTIDES AND METHODS OF USE” (priority 2017, published 2020).
Values after ≈ are worked out from the molar mass of the structure shown. Values joined by “and” are separate entries in the source; they are usually repeats but may differ in a detail not shown here. Equal entries are not always repeated. Where two headings read alike, the source gives them in different places. No end group written: not given here.

Key:
[1] = mouse, in vivo, iv; for Vd: male CD-1 mice
Description: Male CD-1 mice will be received from an approved vendor and allowed to acclimate for a minimum of two days. Fasting will be not required.
All dosing syringes will be weighed prior to and following dosing. IV doses will be administered as a slow bolus (over ˜30 seconds) via direct venipuncture of a tail vein. All animals will be observed at dosing and each scheduled collection. All abnormalities will be recorded.
Terminal blood samples will be collected via cardiac puncture following inhalation anesthesia.
Sample Processing and Storage: Blood samples will be collected into K2EDTA tubes and stored on wet ice. Whole blood will be processed to plasma by centrifugation (3500 rpm at 5° C.) within 30 minutes of collection. Plasma samples will be split into 2 equal aliquots and each transferred into 96 well plates (matrix tubes) and stored at −80° C. until analysis. Administered doses will be determined gravimetrically.
Pharmacokinetic parameters will be calculated using non-compartmental methods as implemented in the Phoenix® WinNonlin® ver. 6.3 comprehensive TK/PK analysis software program (Pharsight Corporation; Mountain View, Calif.) using an IV infusion model. Pharmacokinetic analysis will be conducted using a 30-minute intravenous infusion time. Therefore, 30 minutes will be added to each sample time point postdose to obtain nominal time for TK analysis. Nominal times and dosage levels will be used for all calculations. Values below the lower limit of quantitation (BLQ) will be assigned a value of zero for the pharmacokinetic calculations. Microsoft® Excel® 2013 will be used for receipt of bioanalytical data, minor formatting, including setting BLQ values to “0”, transfer into WinNonlin® for PK analysis, and calculation of the mean when an approximated value will be excluded. All plasma concentration data from all animals will be included in the analysis. Graphical presentations will be performed using Microsoft® Excel® 2013.

[2] = for AUC(0-inf): AUCinf; for clearance: CL; for half-life: T 1/2, macaque; for Vd: Vss
Description: Animals will be obtained from the Test Facility's colony of adult male cynomolgous monkeys (Macaca fascicularis) of Chinese origin. Animals will be weighed prior to dosing.
Animals will be fasted a minimum of 2 hours prior to procedures requiring the administration of ketamine anesthesia. The diet will also be supplemented with other nutrients by feeding items such as raisins or fresh fruits that are presented to the animal as part of an environmental enrichment program. Offering items known to cause diarrhea will be avoided.
Intravenous administration will be via 30 minute infusion into a temporary percutaneous catheter placed into a saphenous vein. Prior to and following dose administration, the catheter will be flushed with 0.5 mL saline prior to removal. All dosing syringes will be weighed prior to and following dosing.
All animals will be observed at dosing and each scheduled collection. All abnormalities will be recorded.
Serial blood samples will be collected via femoral vein (cephalic or saphenous, as necessary). Approximately 1 mL blood samples will be collected into K2EDTA tubes.
Blood samples will be collected into K2EDTA tubes and stored on wet ice. Whole blood will be processed to plasma by centrifugation (2400-2700 rpm at 5° C.) within 30 minutes of collection. Plasma samples will be split into 2 equal aliquots and stored at −80° C. until analysis.
Administered doses will be determined gravimetrically.
Prior to extraction, a known concentration of a mass-adjusted internal standard (IS) will be added to assess recovery and allow for quantitation. Purified samples will be further subjected to high-performance liquid chromatography (HPLC) using C18 300 or 130 angstrom columns prior to MS/MS analysis. Multiple charge states will be observed by MS, so MS/MS will be employed to enable multiple reaction monitoring (MRM) analyses to determine the most MRM transitions with the highest signal-to-noise gain. Compound plasma concentrations will be determined by comparing to and compensating with co-purified IS peak intensity and validated calibrated standard curves.
Toxicokinetic parameters will be calculated using non-compartmental methods as implemented in the Phoenix® WinNonlin® ver. 6.3 comprehensive TK/PK analysis software program (Pharsight Corporation; Mountain View, Calif.) using an IV infusion model. Toxicokinetic analysis will be conducted using a 30-minute intravenous infusion time. Therefore, 30 minutes will be added to each sample time point postdose to obtain nominal time for TK analysis. Nominal times and dosage levels will be used for all calculations. Values below the lower limit of quantitation (BLQ) will be assigned a value of zero for the toxicokinetic calculations. Microsoft® Excel® 2013 will be used for receipt of bioanalytical data, minor formatting, including setting BLQ values to “0”, transfer into WinNonlin® for TK analysis, and calculation of the mean when an approximated value will be excluded. All plasma concentration data from all animals will be included in the analysis. Graphical presentations will be performed using Prism® for Macintosh ver. 7.0a (GraphPad, Inc.; La Jolla, Calif.).

[3] = system: Staphylococcus aureus isolates (n = 104); test: Broth microdilution MIC, clinical isolate panel; assay type: cell-based; conditions: Staphylococcus aureus (n = 104), all methicillin-resistant
Description: (§1) Comparator antibiotics were supplied by Micromyx, and stock solutions were prepared on the first day of testing using solvents recommended by CLSI (1). Stock solutions of all compounds were made at 40× the final testing concentration and stored at −80° C. prior to testing. Information regarding compound source, catalog and lot number, testing concentrations and drug diluent for the comparators and test agent are detailed below in Table 3.
(§2) The test organisms evaluated in this study consisted of clinical isolates from the Micromyx Repository and reference isolates from the American Type Culture Collection (ATCC; Manassas, Va.). The clinical isolates were obtained from USA hospitals. Upon initial receipt at Micromyx, the organisms were sub-cultured onto an appropriate agar medium. Following incubation, colonies were harvested from these plates and cell suspensions prepared and frozen at −80° C. with a cryoprotectant. Prior to testing, the isolates were streaked from frozen vials onto Trypticase Soy Agar with 5% sheep blood (Becton Dickenson [BD]; Sparks, Md.; Lot Nos. 7173618, 7166759, 7208688, 72144895, 7228505 and Remel Lenexa, Kans. Lot No. 212574). Plates were incubated at 35° C. overnight.
(§3) Mueller Hinton II broth (MHB II; BD; Lot Nos. 6258541 and 7143896) was used for MIC testing of aerobic organisms.
(§4) MIC values were determined using a broth microdilution procedure described by CLSI (1, 3). Automated liquid handlers (Multidrop 384, Labsystems, Helsinki, Finland; Biomek 2000 and Biomek FX, Beckman Coulter, Fullerton Calif.) were used to conduct serial dilutions and liquid transfers.
(§5) To prepare the drug mother plates, which would provide the serial drug dilutions for the replicate daughter plates, the wells of columns 2-12 of standard 96-well microdilution plates (Costar 3795) were filled with 150 μl of the designated diluent for each row of drug. The test articles and comparator compounds (300 μl at 40× the highest concentration to be tested) were dispensed into the appropriate wells in column 1. The Biomek 2000 was then used to make 2-fold serial dilutions in the mother plates from column 1 through column 11. The wells of Column 12 contained no drug and served as the organism growth control wells for the assay.
(§6) The daughter plates were loaded with 185 μL per well of MHB II using the Multidrop 384. The daughter plates were completed on the Biomek FX instrument which transferred 5 µL of drug solution from each well of a mother plate to the corresponding well of each daughter plate in a single step. A standardized inoculum of each test organism was prepared per CLSI methods (1). The inoculum for each organism was dispensed into sterile reservoirs divided by length (Beckman Coulter), and the Biomek 2000 was used to inoculate the plates. Daughter plates were placed on the Biomek 2000 work surface in reverse orientation so that inoculation took place from low to high drug concentration.
(§7) Plates were stacked 3-4 high, covered with a lid on the top plate, placed in plastic bags, and incubated at 35° C. for 16 to 20 hrs. Following incubation, the microplates were removed from the incubator and viewed from the bottom using a plate viewer. […] The MIC was read and recorded as the lowest concentration of drug that inhibited visible growth of the organism.
(§8) Clinical breakpoints to determine percent resistance within a given organism group were obtained from CLSI (3), with the exception of colistin for K. pneumoniae, Enterobacter spp., and E. coli, which are only available from EUCAST.

[4] = system: Enterococcus faecium isolates (n = 104); test: Broth microdilution MIC, clinical isolate panel; assay type: cell-based
Description: as §1, §2, §3, §4, §5, §6, §7, §8

[5] = cynomolgus monkey, in vivo, iv, 1 mg/kg, macaque, 1 mg/kg IV infusion, Mean
[6] = cynomolgus monkey, in vivo, iv, 3 mg/kg, macaque, 3 mg/kg IV infusion, Mean
[7] = cynomolgus monkey, in vivo, iv, 10 mg/kg, macaque, 10 mg/kg IV infusion, Mean

With “RRWVRRVRRVWRRVVRVVRRWVRR-NH2 [SEQ ID NO: 1]” as the molecule, how does the AUC(0-inf) ([1]; 3 mg/kg) read?
Its AUC(0-inf) is less than 3500 ng·h/mL.

And the C0 ([1]; 3 mg/kg)?
Its C0 is 26000 ng/mL.

What about the Cmax ([1]; 3 mg/kg) of the same molecule?
The Cmax was 16600 ng/mL.

What about the MRT last ([1]; 3 mg/kg) of the same molecule?
The MRT last was roughly 0.5 h.

What about the Tmax ([1]; 3 mg/kg) of the same molecule?
Its Tmax is 0.303 h.

What about the clearance ([1]; 3 mg/kg) of the same molecule?
The clearance was roughly 5 mL/min/kg.

What about the half-life ([1]; 3 mg/kg) of the same molecule?
Its half-life is roughly 8 h.

And the Vd ([1]; 3 mg/kg, Vss, 3 mg/kg IV)?
Its Vd is roughly 0.2 L/kg.

And the Vd ([1]; 3 mg/kg, Vz, 3 mg/kg IV)?
The Vd was roughly 3 L/kg.

And the AUC(0-inf) ([1]; 15 mg/kg)?
The AUC(0-inf) was 53800 ng·h/mL.

What about the AUC(0-t) ([1]; 15 mg/kg) of the same molecule?
Its AUC(0-t) is 53600 ng·h/mL.

And the C0 ([1]; 15 mg/kg)?
The C0 was 192000 ng/mL.

And the Cmax ([1]; 15 mg/kg)?
Its Cmax is 163000 ng/mL.

And the MRT last ([1]; 15 mg/kg)?
The MRT last was 0.579 h.

What about the clearance ([1]; 15 mg/kg) of the same molecule?
The clearance was 4.65 mL/min/kg.

And the half-life ([1]; 15 mg/kg)?
The half-life was 7.45 h.

What about the Vd ([1]; 15 mg/kg, Vss, 15 mg/kg IV) of the same molecule?
Its Vd is 0.208 L/kg.

And the Vd ([1]; 15 mg/kg, Vz, 15 mg/kg IV)?
The Vd was 3 L/kg.

And the AUC(0-t) ([2]; cynomolgus monkey, in vivo, iv, 1 mg/kg, AUC0-24hr, macaque, 1 mg/kg IV infusion, Mean)?
The AUC(0-t) was 1090 ng·h/mL.

And the AUC(0-inf) [2, 5]?
The AUC(0-inf) was 1170 ng·h/mL.

And the AUC(0-t) ([2]; cynomolgus monkey, in vivo, iv, 1 mg/kg, AUClast, macaque, 1 mg/kg IV infusion, Mean)?
Its AUC(0-t) is 983 ng·h/mL.

And the clearance [2, 5]?
The clearance was 18.5 mL/min/kg.

And the Cmax [2, 5]?
The Cmax was 1710 ng/mL.

What about the half-life ([2]; cynomolgus monkey, in vivo, iv, 1 mg/kg, 1 mg/kg IV infusion, Mean) of the same molecule?
The half-life was 2 h.

What about the Vd [2, 5] of the same molecule?
Its Vd is 1.38 L/kg.

What about the Vd ([2]; cynomolgus monkey, in vivo, iv, 1 mg/kg, macaque, 1 mg/kg IV infusion, individual monkey) of the same molecule?
The Vd was 1.53 L/kg.

What about the AUC(0-t) ([2]; cynomolgus monkey, in vivo, iv, 3 mg/kg, AUC0-24hr, macaque, 3 mg/kg IV infusion, Mean) of the same molecule?
The AUC(0-t) was 7580 ng·h/mL.

What about the AUC(0-inf) [2, 6] of the same molecule?
Its AUC(0-inf) is 7710 ng·h/mL.

What about the AUC(0-t) ([2]; cynomolgus monkey, in vivo, iv, 3 mg/kg, AUClast, macaque, 3 mg/kg IV infusion, Mean) of the same molecule?
Its AUC(0-t) is 7580 ng·h/mL.

What about the clearance [2, 6] of the same molecule?
Its clearance is 7.18 mL/min/kg.

And the Cmax [2, 6]?
The Cmax was 10300 ng/mL.

What about the half-life ([2]; cynomolgus monkey, in vivo, iv, 3 mg/kg, 3 mg/kg IV infusion, Mean) of the same molecule?
Its half-life is 5.2 h.

What about the half-life ([2]; cynomolgus monkey, in vivo, iv, 3 mg/kg, 3 mg/kg IV infusion, individual monkey) of the same molecule?
Its half-life is 4.4 h.

And the Tmax ([2]; cynomolgus monkey, in vivo, iv, 3 mg/kg, Tmax, macaque, 3 mg/kg IV infusion, Mean)?
Its Tmax is 6.6 min.

What about the Vd [2, 6] of the same molecule?
The Vd was 1.29 L/kg.

And the Vd ([2]; cynomolgus monkey, in vivo, iv, 3 mg/kg, macaque, 3 mg/kg IV infusion, individual monkey)?
Its Vd is 1.58 L/kg.

And the AUC(0-t) ([2]; cynomolgus monkey, in vivo, iv, 10 mg/kg, AUC0-24hr, macaque, 10 mg/kg IV infusion, Mean)?
The AUC(0-t) was 50300 ng·h/mL.

And the AUC(0-inf) [2, 7]?
The AUC(0-inf) was 50800 ng·h/mL.

What about the AUC(0-t) ([2]; cynomolgus monkey, in vivo, iv, 10 mg/kg, AUClast, macaque, 10 mg/kg IV infusion, Mean) of the same molecule?
The AUC(0-t) was 50300 ng·h/mL.

What about the clearance [2, 7] of the same molecule?
The clearance was 6.32 mL/min/kg.

And the Cmax [2, 7]?
Its Cmax is 38200 ng/mL.

What about the half-life ([2]; cynomolgus monkey, in vivo, iv, 10 mg/kg, 10 mg/kg IV infusion, Mean) of the same molecule?
Its half-life is 4.6 h.

What about the half-life ([2]; cynomolgus monkey, in vivo, iv, 10 mg/kg, 10 mg/kg IV infusion, individual monkey) of the same molecule?
Its half-life is 4.3 h.

What about the Vd [2, 7] of the same molecule?
The Vd was 1.26 L/kg.

What about the “T 1/2” value ([2]; macaque, 3 mg/kg IV infusion, individual monkey, 3 mg/kg) of the same molecule?
Its value is 6.3 h and 5 h.

What about the “T 1/2” value ([2]; macaque, 10 mg/kg IV infusion, individual monkey, 10 mg/kg) of the same molecule?
Its value is 4.9 h and 4.6 h.

Which “% R (percent of isolates resistant, clinical breakpoints)” value [3] does the source give for `C[C@H]1c2cccc(O)c2C(=O)C2=C(O)[C@]3(O)C(=O)C(C(N)=O)=C(O)[C@@H](N(C)C)[C@@H]3[C@@H](O)[C@@H]21` [Doxycycline] here?
Its value is 0%.

And the MIC50 [3]?
Its MIC50 is 0.12 µg/mL (≈ 0.27 µM).

And the MIC90 [3]?
Its MIC90 is 1 µg/mL (≈ 2.25 µM).

Which results are given for `CC(=O)NC[C@H]1CN(c2ccc(N3CCOCC3)c(F)c2)C(=O)O1` [Linezolid]?
% R (percent of isolates resistant, clinical breakpoints) ([4]; Enterococcus faecium (n = 104)): 3.8%; MIC ([4]; Enterococcus faecium, read-out: Mode (MIC)): 2 µg/mL (≈ 5.93 µM); % R (percent of isolates resistant, clinical breakpoints) [3]: 1.9%; MIC90 [3]: 2 µg/mL (≈ 5.93 µM); MIC ([3]; read-out: Mode (MIC)): 2 µg/mL (≈ 5.93 µM)
